In patent US4699901A, “Diacyl derivatives of glycerylphosphorylcholine, their preparation, and antihyperlipidemic compositions” (Neopharmed SpA, priority 1984, dated 1987):

What was measured:
[1] = tested on: cholesterol and triglycerides; assay: hyperlipidemie test induced in the rat by the administration of Triton WR 1330; assay type: in vivo; details: Triton induced hyperlipidemia, at the minimum dose of 37.5 mg/kg p.os
Source text: The bis(pyridyl-3-carboxilate) esters of formula (I) show an antidislipemic activity higher than that of nicotinic acid.

[2] = tested on: cholesteryl ester hydrolysis and synthesis (acyl-CoA: cholesterol-acyltransferase); details: cited from earlier work
[3] = tested on: levels of acetylcholine in the cortex; assay: experimental model in the mouse of the presinaptic neurochemical damage of Alzheimer disease (Mantione); assay type: in vivo; details: Alzheimer model (Mantione et al.)

Compound: C[N+](C)(C)CCOP(=O)([O-])OC[C@@H](COC(=O)c1cccnc1)OC(=O)c1cccnc1 [optically active form L(alpha), L(alpha) glycerylphosphorylcholine bis(pyridyl-3-carboxilate)]
- inhibition of cholesterol [1]: 50%
- inhibition of triglycerides [1]: 50%

Compound: CCCCC/C=C\C/C=C\CCCCCCCC(=O)OC[C@H](COP(=O)([O-])OCC[N+](C)(C)C)OC(=O)CCCCCCC/C=C\C/C=C\CCCCC [polienoic phosphatidylcholine, glyceril phosphorylcholine Dilinoleate]
- anti-aterogenic action [2]: An anti-aterogenic action
- hydrolysis of cholesteryl ester [2]: an increase of the hydrolysis of cholesteryl ester
- synthesis of cholesteryl esters from acyl-CoA: cholesterol-acyltransferase [2]: a reduction of the synthesis of cholesteryl esters

Compound: L(alpha) glycerylphosphorylcholine bis(pyridyl-3-carboxilate) calcium salt
- inhibition of the regional diminution of the levels of acetylcholine in the cortex [3]: inhibits, in a dose-answer form, the regional diminution of the levels of acetylcholine in the cortex
